{"source": "patent US10632089B2", "about": "“Tyrosinase activity inhibitor and external preparation for skin” (JO Cosmetics Co., Ltd., priority 2015, dated 2020)", "molecules": {"B1": {"name": "MHS:Mn-SOD: human mutant manganese SOD, third amino acid from N-terminus serine substituted with arginine (Patent Document 6) (protein, UniProt P04179 25-222, looked up, variant S3R)", "Superoxide dismutase [Mn], …": "KHRLPDLPYDYGALEPHINAQIMQLHHSKHHAAYVNNLNVTEEKYQEALAKGDVTAQIALQPALKFNGGGHINHSIFWTNLSPNGGGEPKGELLEAIKRDFGSFDKFKEKLTAASVGVQGSGWGWLGFNKERGHLQIAACPNQDPLQGTTGLIPLLGIDVWEHAYYLQYKNVRPDYLKAIWNVINWENVTERYMACKK"}, "B2": {"name": "human manganese SOD: human manganese superoxide dismutase, \"yeast extract (SOD)\" commercially available from Biox Technologies, 3,000 units/mL (protein, UniProt P04179 25-222, looked up)", "Superoxide dismutase [Mn], …": "KHSLPDLPYDYGALEPHINAQIMQLHHSKHHAAYVNNLNVTEEKYQEALAKGDVTAQIALQPALKFNGGGHINHSIFWTNLSPNGGGEPKGELLEAIKRDFGSFDKFKEKLTAASVGVQGSGWGWLGFNKERGHLQIAACPNQDPLQGTTGLIPLLGIDVWEHAYYLQYKNVRPDYLKAIWNVINWENVTERYMACKK"}}, "key": {"[1]": {"biological_target": "T1, tyrosinase (derived from mushrooms) (Agaricus bisporus, UniProt C7FF04)", "T1 construct": "purchased Sigma", "T1 sequence (C7FF04 whole entry)": "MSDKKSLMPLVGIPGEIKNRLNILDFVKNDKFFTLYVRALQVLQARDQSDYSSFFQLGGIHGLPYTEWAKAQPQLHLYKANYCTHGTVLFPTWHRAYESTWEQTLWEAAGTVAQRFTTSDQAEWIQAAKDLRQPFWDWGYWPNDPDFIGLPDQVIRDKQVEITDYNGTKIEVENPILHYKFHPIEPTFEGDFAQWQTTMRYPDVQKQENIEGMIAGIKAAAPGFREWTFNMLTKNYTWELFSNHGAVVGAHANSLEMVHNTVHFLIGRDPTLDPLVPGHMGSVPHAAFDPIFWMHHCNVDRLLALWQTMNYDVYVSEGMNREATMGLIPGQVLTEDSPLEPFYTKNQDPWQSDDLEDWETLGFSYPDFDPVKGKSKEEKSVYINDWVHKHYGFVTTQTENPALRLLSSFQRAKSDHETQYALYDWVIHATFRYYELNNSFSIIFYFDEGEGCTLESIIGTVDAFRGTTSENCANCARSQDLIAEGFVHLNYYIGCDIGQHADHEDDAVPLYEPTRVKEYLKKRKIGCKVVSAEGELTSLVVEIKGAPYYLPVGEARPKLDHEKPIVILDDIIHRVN", "assay": "Test for evaluating inhibition of tyrosinase activity (DOPA substrate, absorbance at 475 nm)", "format": "biochemical", "method": "(§1) After 2 minutes of the addition, the test solution was subjected to measurement of absorbance at 475 nm. Thus-obtained absorbance value was defined as D1. As a control, the same measurement was conducted on a test solution in which each sample was replaced with purified water, and the obtained absorbance value was defined as D2. An inhibition rate of tyrosinase activity was calculated by the following formula."}, "[2]": {"test_system": "tyrosinase (derived from mushrooms)", "assay": "Test for evaluating inhibition of tyrosinase activity (DOPA substrate, absorbance at 475 nm)", "format": "biochemical", "details": "for Tyrosinase activity inhibition rate in the case of using both components/Sum of tyrosinase activity inhibition rate in the case of using each component alone: no second component; for Inhibition rate of tyrosinase activity in the case of conbining human manganese SOD/Inhibition rate of tyrosinase activity in the case without addition of human manganese SOD: (B-1) 0 unit/mL", "method": "as §1"}, "[3]": {"details": "see paragraphs 0060, 0061 and 0072 of Patent Document 6; cited from earlier work"}}, "note": "Where a name gives a salt, the structure may show the parent alone. Read-outs that look alike come from different tables or passages of the source.", "data": [{"molecule": "CCOC1=C(O)C(=O)O[C@@H]1[C@@H](O)CO", "note": "[3-O-ethylascorbic acid, reference compound]", "values": [{"measurement": "inhibition at 2500 µg/mL", "setting": "[1]; (B-2) component only, 2.5 mg/mL, read-out: Inhibition rate of tyrosinase activity (%), (B) component only", "result": 29.9, "unit": "%"}]}, {"molecule": "O=C1O[C@H]([C@@H](O)CO)C(O)=C1O", "note": "[Ascorbic acid, ascorbic acid, reference compound]", "values": [{"measurement": "inhibition at 10 µg/mL", "setting": "[1]; read-out: Inhibition rate of tyrosinase activity (%), (B) component only", "result": 28.7, "unit": "%"}]}, {"molecule": "O=C1O[C@H]([C@@H](O)CO)C([O-])=C1OS(=O)(=O)[O-].[Na+].[Na+]", "note": "[Disodium ascorbyl sulfate, reference compound]", "values": [{"measurement": "Inhibition rate of tyrosinase activity (%), (B) component only", "setting": "[1]; (B-2) component only, 2.5 mg/mL", "result": 40.5, "unit": "%"}]}, {"molecule": "O=C1O[C@H]([C@@H](O)CO)C([O-])=C1OP(=O)([O-])[O-].O=C1O[C@H]([C@@H](O)CO)C([O-])=C1OP(=O)([O-])[O-].[Mg+2].[Mg+2].[Mg+2]", "note": "[Magnesium ascorbyl phosphate, magnesium ascorbyl phosphate, reference compound]", "values": [{"measurement": "Inhibition rate of tyrosinase activity (%), (B) component only", "setting": "[1]; (B-2) component only, 5 mg/mL", "result": 11.1, "unit": "%"}]}, {"molecule": "Cc1ncc(CO)c(CO)c1O", "note": "[Pyridoxine hydrochloride, pyridoxine hydrochloride, reference compound]", "values": [{"measurement": "inhibition at 5000 µg/mL", "setting": "[1]; read-out: Inhibition rate of tyrosinase activity (%)", "result": 42.9, "unit": "%"}]}, {"molecule": "O=C1O[C@H]([C@@H](O)CO)C([O-])=C1OP(=O)([O-])[O-].[Na+].[Na+].[Na+]", "note": "[Sodium ascorbyl phosphate, sodium ascorbyl phosphate, reference compound]", "values": [{"measurement": "Inhibition rate of tyrosinase activity (%), (B) component only", "setting": "[1]; (B-2) component only, 5 mg/mL", "result": 15.6, "unit": "%"}]}, {"molecule": "OC[C@H]1O[C@@H](Oc2ccc(O)cc2)[C@H](O)[C@@H](O)[C@@H]1O", "note": "[arbutin, reference compound]", "values": [{"measurement": "inhibition rate of tyrosinase activity", "setting": "[1]; arbutin solely, 3.0% by mass", "result": 71.3, "unit": "%"}]}, {"molecule": "O=C1O[C@H]([C@@H](O)CO)C(O)=C1O[C@H]1O[C@H](CO)[C@@H](O)[C@H](O)[C@H]1O", "note": "[ascorbyl glucoside, 2-O-α-D-glucopyranosyl-L-ascorbic acid]", "values": [{"measurement": "inhibition rate of tyrosinase activity", "setting": "[1]; ascorbic acid derivative (ascorbyl glucoside) solely, 2.0% by mass", "result": 21.9, "unit": "%"}, {"measurement": "inhibition at 5000 µg/mL", "setting": "[1]; ascorbyl glucoside solely, 5 mg/mL, read-out: Inhibition rate of tyrosinase activity (%)", "result": 8.4, "unit": "%"}, {"measurement": "inhibition at 10000 µg/mL", "setting": "[1]; ascorbyl glucoside solely, 10 mg/mL, read-out: Inhibition rate of tyrosinase activity (%)", "result": 15.4, "unit": "%"}, {"measurement": "inhibition at 20000 µg/mL", "setting": "[1]; ascorbyl glucoside solely, 20 mg/mL, read-out: Inhibition rate of tyrosinase activity (%)", "result": 26.8, "unit": "%"}]}, {"molecule": "O=C(O)CCCCC1CCSS1", "note": "(stereo not drawn) [α-lipoic acid, 6,8-dithiooctanoic acid, reference compound]", "values": [{"measurement": "Inhibition rate of tyrosinase activity (%)", "setting": "[1]; α-lipoic acid solely, 4.31 μg/mL", "result": 0.7, "unit": "%"}, {"measurement": "Tyrosinase activity inhibition rate in the case of using both components/Sum of tyrosinase activity inhibition rate in the case of using each component alone", "setting": "[2]; α-lipoic acid 4.31 μg/mL", "result": 1.00}]}, {"molecule": "zinc chelate compound of N-(6,8-dimercaptooctanoyl)-L-histidine sodium salt [histidine dithiooctanamide (Na/zinc)]", "values": [{"measurement": "Inhibition rate of tyrosinase activity (%)", "setting": "[1]; histidine dithiooctanamide (Na/zinc) solely, 1.08 μg/mL (2.5 μM)", "result": 13.2, "unit": "%"}, {"measurement": "Inhibition rate of tyrosinase activity (%)", "setting": "[1]; histidine dithiooctanamide (Na/zinc) solely, 2.15 μg/mL (5 μM)", "result": 25.3, "unit": "%"}, {"measurement": "Inhibition rate of tyrosinase activity (%)", "setting": "[1]; histidine dithiooctanamide (Na/zinc) solely, 3.23 μg/mL (7.5 μM)", "result": 53.6, "unit": "%"}, {"measurement": "Inhibition rate of tyrosinase activity (%)", "setting": "[1]; histidine dithiooctanamide (Na/zinc) solely, 4.31 μg/mL (10 μM)", "result": 68.9, "unit": "%"}, {"measurement": "Inhibition rate of tyrosinase activity in the case of conbining human manganese SOD/Inhibition rate of tyrosinase activity in the case without addition of human manganese SOD", "setting": "[2]; (A) 1.08 μg/mL", "result": 1.00}, {"measurement": "Tyrosinase activity inhibition rate in the case of using both components/Sum of tyrosinase activity inhibition rate in the case of using each component alone", "setting": "[2]; (A) 1.08 μg/mL", "result": 1.00}, {"measurement": "Inhibition rate of tyrosinase activity in the case of conbining human manganese SOD/Inhibition rate of tyrosinase activity in the case without addition of human manganese SOD", "setting": "[2]; (A) 2.15 μg/mL", "result": 1.00}, {"measurement": "Tyrosinase activity inhibition rate in the case of using both components/Sum of tyrosinase activity inhibition rate in the case of using each component alone", "setting": "[2]; (A) 2.15 μg/mL", "result": 1.00}, {"measurement": "Inhibition rate of tyrosinase activity in the case of conbining human manganese SOD/Inhibition rate of tyrosinase activity in the case without addition of human manganese SOD", "setting": "[2]; (A) 3.23 μg/mL", "result": 1.00}, {"measurement": "Inhibition rate of tyrosinase activity in the case of conbining human manganese SOD/Inhibition rate of tyrosinase activity in the case without addition of human manganese SOD", "setting": "[2]; (A) 4.31 μg/mL", "result": 1.00}]}, {"molecule": "B1", "values": [{"measurement": "isoelectric point", "setting": "[3]", "result": "about 8.2"}]}, {"molecule": "B2", "values": [{"measurement": "Inhibition rate of tyrosinase activity (%)", "setting": "[1]; human manganese SOD solely, 3 units/mL", "result": 4.53, "unit": "%"}, {"measurement": "Inhibition rate of tyrosinase activity (%)", "setting": "[1]; human manganese SOD solely, 3 units/mL, listed as (B-1) component", "result": 4.5, "unit": "%"}, {"measurement": "Inhibition rate of tyrosinase activity (%)", "setting": "[1]; human manganese SOD solely, 15 units/mL", "result": 3.74, "unit": "%"}, {"measurement": "Inhibition rate of tyrosinase activity (%)", "setting": "[1]; human manganese SOD solely, 15 units/mL, listed as (B-1) component", "result": 3.7, "unit": "%"}, {"measurement": "Inhibition rate of tyrosinase activity (%)", "setting": "[1]; human manganese SOD solely, 150 units/mL", "result": 4.66, "unit": "%"}, {"measurement": "Inhibition rate of tyrosinase activity (%)", "setting": "[1]; human manganese SOD solely, 150 units/mL, listed as (B-1) component", "result": 4.7, "unit": "%"}]}]}
